US20240190854A1, “PYRIMIDINE OR PYRIDINE DERIVATIVES USEFUL AS HCN2 MODULATORS” (King's College London, priority 2021, published 2024)
“Also recorded” adds a separate entry of the source.

Columns and labels:
[1] = CNS penetration: plasma, brain and auditory nerve levels; assay type: in vivo; conditions: guinea pig, auditory nerve, other: injection; 30 min after injection, n=2, preliminary; read-out: Ratio of total concentrations auditory nerve : plasma
Method: Ivabradine in guinea pig plasma, brain (somatosensory cortex) and auditory nerve were assayed at 30 min after injection, the time used in Example 130.

[2] = test system: mice, normal hearing; assay type: in vivo; conditions: adult mice; Example 29 at 20 mg/kg ip
[3] = test system: guinea pigs, noise-exposure tinnitus; assay: GPIAS test, noise-exposure tinnitus model; assay type: in vivo, guinea pig
Description: (§1) Tinnitus in guinea pigs was monitored using the gap induced inhibition of the acoustic startle (GPIAS) test (see FIG. 5). GPIAS is reduced when tinnitus was present; see Berger, J. I. et al. Effects of the cannabinoid CB1 agonist ACEA on salicylate ototoxicity, hyperacusis and tinnitus in guinea pigs. Hearing research, (2017), and Coomber, B. et al. Neural changes accompanying tinnitus following unilateral acoustic trauma in the guinea pig. Eur J Neurosci 40, 2427-2441, (2014).
(§2) In FIG. 5, sound stimulus (above) and corresponding pinna reflex (below) are shown in freely moving guinea pigs. Stimuli with no gap and gap are presented in a randomised order. Traces contaminated by movement (the upper trace in “no gap”) were removed before analysis.
The noise-exposure model is more clinically relevant than the salicylate model, as it parallels a common cause of tinnitus in humans. A second important point is that it is long-term, while tinnitus induced by salicylate is rapidly reversed following salicylate exposure.

[4] = test system: Black6 mice; conditions: mouse, in vivo; cited from earlier work
[5] = test system: guinea pigs, salicylate-induced tinnitus; assay: GPIAS test, short-term salicylate tinnitus model; assay type: in vivo, guinea pig; conditions: salicylate 350 mg/kg i.p.; ivabradine 5 mg/kg s.c.
Description: as §1, §2
Tinnitus was induced within 1-2 hours in humans by high doses of salicylate. A similar short-term tinnitus model was implemented in guinea pigs by i.p. injection of salicylate. In all animals, salicylate caused behavioural inhibition of GPIAS (see bar 2 in FIG. 6).
Salicylate (350 mg/kg, i.p.) impairs behavioural gap detection 2 h after salicylate administration (see bar 2 in of FIG. 6). Gap detection was restored by blocking HCN channels with ivabradine (5 mg/kg, s.c.).

## COc1cc2c(cc1OC)CC(=O)N(CCCN(C)C[C@H]1Cc3cc(OC)c(OC)cc31)CC2 [ivabradine, Ivabradine]
[1]
  Kp at 30 min: 0.57
[2]
  Effect on ABR threshold or latency: no significant difference
[3]; control experiments, n=3
  Effect on GPIAS in noise-exposed guinea pigs showing no behavioural tinnitus: without effect on GPIAS; also recorded: without effect on gap detection
[3]; guinea pigs with impaired GPIAS, 5 mg/kg s.c.
  Effect on reduced GPIAS after noise exposure: rapidly and completely reversed; also recorded: fully restores GPIAS
[4]
  Therapeutic window between analgesia and bradycardia: little therapeutic window
[5]
  Effect on GPIAS (behavioural gap detection): reversed GPIAS; also recorded: restored
